Literature values, collected in article PMC9620260 (Journal of Medicinal Chemistry, 2022).
Like-named read-outs stand apart in the source and are kept apart here.

Experiments:
[1] = not given; remark: listed apart in the source
Neu1 = details: selective for Neu1 over the other isoenzymes
[2] = test system: C. perfringens sialidase (CpNanI)
[3] = molecular target: T. cruzi trans-sialidase (TcTS)

## COc1cc(C)c(C(=O)Oc2cc(C)c(C(=O)O)c(O)c2)c(O)c1 [Evernic acid]
Bacterial sialidase
  inhibition against bacterial sialidase: dose-dependent inhibition

## CC(=O)N[C@H]1[C@H]([C@H](O)[C@H](O)CO)OC(O)(C(=O)O)C[C@@H]1O (stereo partly shown) [Neu5Ac, N-acetylneuraminic acid]
sialidases
  inhibition of sialidases: weak inhibitor

## CCOC(=O)C1=C[C@@H](OC(CC)CC)[C@H](NC(C)=O)[C@@H](N)C1 [oseltamivir]
other
  side effects: neuropsychiatric side effects

## COC(=O)C1(OC(C)=O)OC([C@H](OC(C)=O)[C@@H](COC(C)=O)OC(C)=O)C(NC(C)=O)C(OC(C)=O)C1F (stereo partly shown) [P-3Fax-Neu5Ac]
sialyltransferases
  inhibition of the sialyltransferases: cell-permeable specific inhibitor
[1]
  nephrotoxicity: well-known nephrotoxicity

## CC(=O)NC1C(O)C(F)C(F)(C(=O)O)OC1C(O)C(O)CN=[N+]=[N-] (stereo not shown) [9-azido-modified 2,3-diF-Neu5Ac]
Bacterial sialidase; effect of modification of 2,3-difluoro-Sia
  inhibitory activity against bacterial sialidases: increased inhibitory activity

## CCCCC(=O)NC[C@@H](O)[C@@H](O)[C@@H]1OC(C(=O)O)=C[C@H](O)[C@H]1NC(C)=O [C-9 Pentylamido derivative of DANA]
Neu1
  IC50 against Neu1: micromolar

## COc1cc2oc(-c3ccc(O)cc3O)c(CC=C(C)C)c(=O)c2c(O)c1/C=C/C(C)C [artocarpin]
Influenza viral NA
  inhibitory activity against influenza sialidase: inhibitory activity
S. pneumoniae sialidases
  inhibitory activity against S. pneumoniae sialidases: inhibitory activity

## COc1ccc(C=CC(=O)C=C(O)C=Cc2ccc(O)c(O)c2)cc1O [7-(3,4-dihydroxyphenyl)-5-hydroxy-1-(3-hydroxy-4-methoxyphenyl) hepta-1,4,6-trien-3-one]
[2]
  inhibition of C. perfringens sialidase: inhibit
V. cholerae sialidase
  inhibition of V. cholerae sialidase: inhibit
SpNanA
  inhibition of S. pneumoniae NanA: inhibit

## O=C(CCc1ccccc1)C[C@@H]1C[C@@H](c2ccccc2)c2c(cc(/C=C/c3ccccc3)oc2=O)O1 [katsumadain A]
Influenza viral NA
  inhibitory activity against influenza sialidase: inhibitory activity
S. pneumoniae sialidases
  inhibitory activity against S. pneumoniae sialidases: inhibitory activity

## CC(=O)N[C@H]1[C@H]([C@H](O)[C@H](O)CO)O[C@@](Oc2ccc([N+](=O)[O-])cc2C(F)F)(C(=O)O)C[C@@H]1O [2-difluoromethyl-4-nitrophenyl glycoside of αNeu5Ac]
T. cruzi
  T. cruzi infection of mammalian cells: prevents T. cruzi infection of mammalian cells
[3]; irreversible inhibitor of trans-sialidase
  IC50: 600 µM

## CC(=O)N[C@H]1[C@H]([C@H](O)[C@H](O)CO)OC(C(=O)O)=C[C@@H]1O [DANA, 2-deoxy-2,3-dehydro-N-acetylneuraminic acid]
Influenza viral NA; influenza viral neuraminidases
  Ki values: micromolar range
[3]
  IC50 against TcTS: several hundred

## O=C(O)c1cc(O)c2c(c1)C(=O)c1cc(O)c(Cl)c(O)c1C2=O [6-chloro-9,10-dihydro-4,5,7-trihydroxy-9,10-dioxo-2-anthracenecarboxylic acid]
[3]; specific TcTS inhibitor
  IC50: 0.58 µM
